Each structure is given as a SMILES string.

A short description of the data set: Membrane permeation property of the cosurfactant in soft capsules over storage at room temperature (cosurfactant content by gas chromatography). The data set is classed as physicochemical. The note with it: after 50 days. As for the experimental part: The content of the cosurfactant in each soft capsule preparation was analyzed by gas chromatography. The components and their constitutional ratios in the compositions used in this experiment are given in the following Table 1 and the experiment results are given in the following Table 2.

Regarding `CO[C@H]1CO[C@H]2[C@@H]1OC[C@H]2OC` [dimethylisosorbide, 1,4:3,6-dianhydro-2,5-dimethyl-D-glucitol], the “change in content of the cosurfactant in the soft capsule” value is “does not change in its content even after 50 days”.

(Values after EP0650721B1 (HANMI PHARM. IND. CO., LTD., priority 1993, dated 1995).)
